Results: paper PMC10455244, “Alpha-Mangostin: A Potent Inhibitor of TRPV3 and Pro-Inflammatory Cytokine Secretion in Keratinocytes” (International Journal of Molecular Sciences, 2023)

Experiments:
TRPV3 = settings: read-out: IC50 (µM), channel inhibited TRPV3; cited from earlier work
TRPV2 = tested on: TRPV2; set-up: method as in PMID 28333079; settings: read-out: IC50 (µM), channel inhibited TRPV2; cited from earlier work
TRPV1 = settings: read-out: IC50 (µM), channel inhibited TRPV1; cited from earlier work
TRPA1 = target: T1, TRPA1 (Homo sapiens, UniProt O75762); settings: read-out: IC50 (µM), channel inhibited TRPA1; cited from earlier work
T1 construct: host or cells: HEK 293T (transient transfection)
T1 sequence (O75762 whole entry, species assumed): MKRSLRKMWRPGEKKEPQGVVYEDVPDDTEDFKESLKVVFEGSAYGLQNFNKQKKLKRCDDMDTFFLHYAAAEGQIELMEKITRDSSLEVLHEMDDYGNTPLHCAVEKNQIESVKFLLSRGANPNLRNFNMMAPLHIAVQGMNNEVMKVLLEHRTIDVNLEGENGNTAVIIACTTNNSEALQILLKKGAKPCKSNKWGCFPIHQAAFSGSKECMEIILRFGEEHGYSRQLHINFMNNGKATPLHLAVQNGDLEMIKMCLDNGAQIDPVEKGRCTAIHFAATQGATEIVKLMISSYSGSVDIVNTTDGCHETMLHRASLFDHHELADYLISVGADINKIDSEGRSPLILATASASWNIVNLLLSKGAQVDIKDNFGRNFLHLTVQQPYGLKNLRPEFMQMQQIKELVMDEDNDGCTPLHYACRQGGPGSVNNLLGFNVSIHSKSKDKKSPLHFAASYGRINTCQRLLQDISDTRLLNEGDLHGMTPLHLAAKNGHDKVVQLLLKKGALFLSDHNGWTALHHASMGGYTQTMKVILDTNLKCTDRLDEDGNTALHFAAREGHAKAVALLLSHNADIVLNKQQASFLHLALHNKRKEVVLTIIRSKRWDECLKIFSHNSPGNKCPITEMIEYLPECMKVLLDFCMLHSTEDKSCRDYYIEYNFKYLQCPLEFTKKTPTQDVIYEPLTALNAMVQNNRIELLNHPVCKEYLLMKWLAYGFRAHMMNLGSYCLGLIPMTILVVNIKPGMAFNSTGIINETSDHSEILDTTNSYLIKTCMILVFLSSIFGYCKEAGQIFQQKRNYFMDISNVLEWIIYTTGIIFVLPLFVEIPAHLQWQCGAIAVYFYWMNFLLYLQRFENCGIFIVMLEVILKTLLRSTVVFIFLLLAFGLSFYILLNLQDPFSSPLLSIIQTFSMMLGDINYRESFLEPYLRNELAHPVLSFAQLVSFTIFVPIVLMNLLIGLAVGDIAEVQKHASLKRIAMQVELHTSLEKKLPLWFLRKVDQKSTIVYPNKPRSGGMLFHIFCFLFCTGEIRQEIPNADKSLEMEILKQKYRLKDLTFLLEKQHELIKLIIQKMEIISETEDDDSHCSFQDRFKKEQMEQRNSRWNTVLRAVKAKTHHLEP

TNF-α = assay: ELISA, TNF-α release in NHEK; format: cell-based, human; settings: 300 µM carvacrol alone, 24 h
Excerpt: (§1) Constitutive activation of TRPV3 due to continuous stimulation or the presence of Olmsted mutations causes noticeable skin inflammation due to the increased secretion of pro-inflammatory cytokines from the keratinocytes. Besides, in atopic dermatitis (AD), cytokine release from keratinocytes contributes to the inflammatory environment, which drives many characteristic AD symptoms. Therefore, we determined the effect of TRPV3 activation on cytokine release instead of TRPV3 expression and evaluated whether alpha-mangostin suppressed TRPV3-mediated cytokine secretion in normal human keratinocytes. The levels of secreted cytokines (interleukin (IL)-6, IL-8, and tumor necrosis factor-alpha (TNF-α)) were measured using enzyme-linked Immunosorbent assay (ELISA) kits due to their high sensitivity and quantitation ability. The cells were induced with 300 µM carvacrol, with or without 1 µM alpha-mangostin, and 10 µM 74a.
(§2) Figure 5 Alpha-mangostin (α-MG) inhibited carvacrol-induced cytokine release in NHEK cells and rescued carvacrol-induced cell death. (A) Alpha-mangostin inhibited the carvacrol-induced release of IL-8 and IL-6 in NHEK. Cells were induced by 300 µM carvacrol with or without either 1 µM alpha-mangostin or 10 µM 74a for 24 h before the ELISA assay. (B) Alpha-mangostin reduced cell death caused by carvacrol in human keratinocytes. […]

IL-8 = assay: ELISA, carvacrol-induced IL-8 release in NHEK; format: cell-based, human; settings: 300 µM carvacrol alone, 24 h
Excerpt: as §1, §2

IL-6 = assay: ELISA, carvacrol-induced IL-6 release in NHEK; format: cell-based, human; settings: 300 µM carvacrol alone, 24 h, not significant
Excerpt: as §1, §2

TRPV3 (WT) = assay: in vitro; format: cell-based, human; settings: human

In the case of Forsythoside B, the IC50 (TRPV3) is listed as 6.7 ± 0.7 µM.

For `COc1c(O)cc(O)c2c(=O)c3cccc(O)c3n(C)c12` [Citrusinine II], the IC50 (TRPV3) is given as 12.4 ± 1.86 µM.

For `COc1ccc2ccc(=O)oc2c1CC=C(C)C` [Coumarin osthole], the IC50 (TRPV3) is given as 37 ± 1.9 µM.

For `O=C(/C=C/c1ccc(O)c(O)c1)O[C@@H]1CC(O)(C(=O)O)C[C@@H](OC(=O)/C=C/c2ccc(O)c(O)c2)C1O` (stereo partly shown) [Isochlorogenic acid A], the IC50 (TRPV3) is listed as 2.7 ± 1.3 µM.

In the case of `CCC=CC1CCC2(CC3CCC4C(C(=O)OCCCCCCCCCCCCCCCC(=O)N(CCCN)CCCCN)C5(CCCC(C)O5)NC(=[N+]34)N2)O1` (stereo not shown) [Monanchomycalin B], the IC50 (TRPV3) is given as 3.25 ± 0.6 µM, the IC50 (TRPV2) is given as 2.84 ± 1.01 µM and the IC50 (TRPV1) is given as 6.02 ± 0.36 µM.

For Pulchranin A, the IC50 (TRPV3) is given as 71.8 ± 9.4 µM, the IC50 (TRPV1) is given as 27.5 ± 1.4 µM and the IC50 (TRPA1) is given as 174 ± 7.4 µM.

In the case of `O=C(C=Cc1ccc(O)c(O)c1)OC1CC(O)(C(=O)O)CC(O)C1OC(=O)C=Cc1ccc(O)c(O)c1` (stereo not shown) [Isochlorogenic acid B], the IC50 (TRPV3) is given as 0.9 ± 0.3 µM.

In the case of Pulchranin C, the IC50 (TRPV3) is listed as greater than 200 µM, the IC50 (TRPV1) is listed as 183 ± 27 µM and the IC50 (TRPA1) is listed as greater than 200 µM.

In the case of `C[C@@H]1O[C@@H](O[C@@H]2[C@@H](O)[C@H](OCCc3ccc(O)c(O)c3)O[C@H](CO)[C@H]2OC(=O)/C=C/c2ccc(O)c(O)c2)[C@H](O)[C@H](O)[C@H]1O` [Verbascoside], the IC50 (TRPV3) is given as 14.1 ± 3.3 µM.

With `Cc1ccc(C(C)C)cc1O` [carvacrol, reference compound] the “Effect on TNF-α levels” value (TNF-α) was “non-significant effect”, the “Effect on IL-8 release” value (IL-8) was “significantly stimulated” and the “Effect on IL-6 secretion” value (IL-6) was “slight increase”. The viability at 24 h, 300 µM (TRPV3 (WT)) was 75.6%.
